From US10611730B2, “Benzimidazolone and benzothiazolone compounds and their use as AMPA receptor modulators” (Janssen Pharmaceutica NV, priority 2015, dated 2020)

What follows are molecules tested against TARP γ8 dependent AMPA receptor (GluA1o-g8 fusion channel) (Homo sapiens (Human), UniProt P42261+Q8WXS5) (assay: Calcium flux assay (FLIPR), HEK293 cells expressing GRIA1o-CACNG8 fusion). Conditions: inhibition of calcium flux after 15 μM glutamate.
Chain of TARP γ8 dependent AMPA receptor (GluA1o-g8 fusion channel) (P42261 other isoform, or with tags, fused parts or gaps): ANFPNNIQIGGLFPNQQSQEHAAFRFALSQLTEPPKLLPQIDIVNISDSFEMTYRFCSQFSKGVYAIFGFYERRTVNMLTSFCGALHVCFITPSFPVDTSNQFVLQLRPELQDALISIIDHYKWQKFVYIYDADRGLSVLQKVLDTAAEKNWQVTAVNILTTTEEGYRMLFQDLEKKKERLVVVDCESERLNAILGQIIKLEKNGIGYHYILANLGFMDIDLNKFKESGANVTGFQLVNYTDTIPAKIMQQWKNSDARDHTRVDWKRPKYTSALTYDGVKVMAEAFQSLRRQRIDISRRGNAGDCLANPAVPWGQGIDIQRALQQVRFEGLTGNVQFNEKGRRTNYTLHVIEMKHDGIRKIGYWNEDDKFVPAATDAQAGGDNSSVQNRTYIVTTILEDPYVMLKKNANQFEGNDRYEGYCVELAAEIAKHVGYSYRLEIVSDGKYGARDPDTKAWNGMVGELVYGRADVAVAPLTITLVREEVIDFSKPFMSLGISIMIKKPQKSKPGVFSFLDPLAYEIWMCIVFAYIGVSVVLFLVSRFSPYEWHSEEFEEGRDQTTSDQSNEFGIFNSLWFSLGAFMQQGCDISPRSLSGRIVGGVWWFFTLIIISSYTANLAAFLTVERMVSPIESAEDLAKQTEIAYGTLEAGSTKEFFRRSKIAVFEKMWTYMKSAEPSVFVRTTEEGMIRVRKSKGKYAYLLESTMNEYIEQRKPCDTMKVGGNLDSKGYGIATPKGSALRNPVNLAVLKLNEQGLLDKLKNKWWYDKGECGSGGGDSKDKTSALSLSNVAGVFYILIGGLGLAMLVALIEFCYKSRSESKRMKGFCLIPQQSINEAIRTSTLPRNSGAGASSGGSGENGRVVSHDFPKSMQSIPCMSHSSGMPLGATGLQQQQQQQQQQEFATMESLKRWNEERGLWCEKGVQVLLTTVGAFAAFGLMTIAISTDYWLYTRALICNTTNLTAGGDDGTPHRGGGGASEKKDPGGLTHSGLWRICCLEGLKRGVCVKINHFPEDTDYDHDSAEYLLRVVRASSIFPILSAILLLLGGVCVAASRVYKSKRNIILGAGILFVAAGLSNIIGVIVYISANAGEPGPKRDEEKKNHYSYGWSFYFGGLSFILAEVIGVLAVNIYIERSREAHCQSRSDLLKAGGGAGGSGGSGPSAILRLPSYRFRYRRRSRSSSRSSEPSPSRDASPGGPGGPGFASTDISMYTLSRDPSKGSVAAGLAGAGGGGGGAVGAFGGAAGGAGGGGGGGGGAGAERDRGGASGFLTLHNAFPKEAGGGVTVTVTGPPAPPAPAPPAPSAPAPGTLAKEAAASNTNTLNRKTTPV
Format: cell-based
Excerpt: This assay was used to test compounds for their ability to inhibit TARP γ8 dependent AMPA receptor activity.
An in vitro assay was used to determine the potency of test compounds as inhibitors of the glutamate response of the channel formed by GluA1o-g8. To ensure a 1:1 stoichiometry of GluA1o and g8 subunits in the expressed channel, a fusion of the cDNAs for GRIA1o and CACNG8 was used. […] A clonal cell line in HEK293 cells stably expressing this construct, with a geneticin selection marker, was generated for use in this assay. Cell expressing the GRIAlo-CACNG8 fusion construct were grown in a monolayer in 96- or 384-well microtiter plates. […] The cells were then loaded with a calcium-sensitive dye (Calcium-5 or Calcium-6, Molecular Devices) and the test compounds at a range of concentrations.
The fluorescence in each well was normalized to the fluorescence of negative and positive control wells. […] The responses to glutamate as functions of the test compound concentrations were fitted to a four-parameter logistic function. The fitted parameter corresponding to the midpoint was taken to be the potency of inhibition of the compound.
For `O=c1[nH]c2ccc(-c3c(Cl)cccc3OC(F)(F)F)cc2s1` [Example 76, 6-[2-Chloro-6-(trifluoromethoxy)phenyl]-3H-1,3-benzothiazol-2-one], the “GluR1-γ8 pIC50” value was 8.6.

Same assay, conditions: inhibition of calcium flux after 15 μM glutamate, read-out: GluR1-γ8 pIC50 (converted)
In the case of `COC1CCN(c2cccc(-c3ccc4[nH]c(=O)sc4c3)c2Cl)CC1` [Example 213, 6-(2-Chloro-3-(4-methoxypiperidin-1-yl)phenyl)benzo[d]thiazol-2(3H)-one], the IC50 is reported as 2510 nM. Work on `Cc1cccc(-c2ccc3[nH]c(=O)[nH]c3c2)c1Cl` [Example 64, 5-(2-Chloro-3-methyl-phenyl)-1,3-dihydrobenzimidazol-2-one] yielded an IC50 of 100 nM. `N#Cc1ccc(Cl)c(-c2ccc3[nH]c(=O)[nH]c3c2)c1` [Example 40, 4-Chloro-3-(2-oxo-1,3-dihydrobenzimidazol-5-yl)benzonitrile] gave an IC50 of 1580 nM. Molecule `Cc1c(-c2ccc3[nH]c(=O)sc3c2)cccc1-c1ncno1` [Example 200, 6-[2-Methyl-3-(1,2,4-oxadiazol-5-yl)phenyl]-3H-1,3-benzothiazol-2-one] has an IC50 of 2510 nM. `N#Cc1ccc(Cl)c(-c2ccc3[nH]c(=O)[nH]c3c2)c1OC(F)(F)F` [Example 209, 4-Chloro-3-(2-oxo-1,3-dihydrobenzimidazol-5-yl)-2-(trifluoromethoxy)benzonitrile] showed an IC50 of 15.8 nM. With `N#CCc1cccc(Cl)c1-c1ccc2[nH]c(=O)sc2c1` [Example 133, 2-[3-Chloro-2-(2-oxo-3H-1,3-benzothiazol-6-yl)phenyl]acetonitrile] the IC50 was 3.16 nM. Molecule `CC(C)Oc1c(Cl)cccc1-c1ccc2[nH]c(=O)[nH]c2c1` [Example 115, 5-(3-Chloro-2-isopropoxy-phenyl)-1,3-dihydrobenzimidazol-2-one] has an IC50 of 2000 nM. `O=c1[nH]c2ccc(-c3c(F)cccc3OCc3ccccc3)cc2[nH]1` [Example 26, 5-(2-Benzyloxy-6-fluoro-phenyl)-1,3-dihydrobenzimidazol-2-one] showed an IC50 of 100 nM. `C[C@@H](Oc1cccc(Cl)c1-c1ccc2[nH]c(=O)[nH]c2c1)C(F)(F)F` (single isomer, unassigned) [Example 119, (R*)-5-[2-Chloro-6-(2,2,2-trifluoro-1-methyl-ethoxy)phenyl]-1,3-dihydrobenzimidazol-2-one] gave an IC50 of 50.1 nM. For `CC(C)Oc1ccccc1-c1ccc2[nH]c(=O)[nH]c2c1` [Example 8, 5-(2-Isopropoxyphenyl)-1,3-dihydrobenzimidazol-2-one], the IC50 was 2000 nM. For `O=c1[nH]c2ccc(-c3cccc(-c4nnc(C5CC5)o4)c3Cl)cc2[nH]1` [Example 196, 5-[2-Chloro-3-(5-cyclopropyl-1,3,4-oxadiazol-2-yl)phenyl]-1,3-dihydrobenzimidazol-2-one], the IC50 was 316 nM. `Cc1cc(Cl)cc(C)c1-c1ccc2[nH]c(=O)[nH]c2c1` [Example 37, 5-(4-Chloro-2,6-dimethyl-phenyl)-1,3-dihydrobenzimidazol-2-one] was tested, and the IC50 was 794 nM. For `COc1cnccc1-c1cccc(Cl)c1-c1ccc2[nH]c(=O)[nH]c2c1` [Example 171, 5-[2-Chloro-6-(3-methoxy-4-pyridyl)phenyl]-1,3-dihydrobenzimidazol-2-one], the IC50 was 1000 nM. With `COc1cccc(OCc2ccccc2)c1-c1ccc2[nH]c(=O)[nH]c2c1` [Example 105, 5-(2-Benzyloxy-6-methoxy-phenyl)-1,3-dihydrobenzimidazol-2-one] the IC50 was 39.8 nM. With `Cn1ccc(-c2cccc(-c3ccc4[nH]c(=O)[nH]c4c3)c2Cl)n1` [Example 183, 5-[2-Chloro-3-(1-methylpyrazol-3-yl)phenyl]-1,3-dihydrobenzimidazol-2-one] the IC50 was 1580 nM. With `N#Cc1cccc(Cl)c1-c1ccc2[nH]c(=O)[nH]c2c1` [Example 56, 3-Chloro-2-(2-oxo-1,3-dihydrobenzimidazol-5-yl)benzonitrile] the IC50 was 631 nM. With `Cc1c(CN2CCN(C(=O)OC(C)(C)C)CC2)cccc1-c1ccc2[nH]c(=O)[nH]c2c1` [Example 155, tert-Butyl 4-[[2-methyl-3-(2-oxo-1,3-dihydrobenzimidazol-5-yl)phenyl]methyl]piperazine-1-carboxylate] the IC50 was 316 nM. `O=c1[nH]c2ccc(-c3cccc(CN4CCOC(C(F)(F)F)C4)c3Cl)cc2[nH]1` (racemic) [Example 144, (±)-5-[2-Chloro-3-[[2-(trifluoromethyl)morpholin-4-yl]methyl]phenyl]-1,3-dihydrobenzimidazol-2-one] gave an IC50 of 126 nM. In the case of `COC(=O)c1cccc(-c2ccc3[nH]c(=O)[nH]c3c2)c1Cl` [Example 43, Methyl 2-chloro-3-(2-oxo-1,3-dihydrobenzimidazol-5-yl)benzoate], the IC50 is reported as 31.6 nM. Work on `Cc1c(-c2ccc3[nH]c(=O)[nH]c3c2)cccc1-c1nc(C2CC2)no1` [Example 201, 5-(3-(3-cyclopropyl-1,2,4-oxadiazol-5-yl)-2-methylphenyl)-1H-benzo[d]imidazol-2(3H)-one] yielded an IC50 of 10 nM. `Cc1c(C(=O)Nc2ccccc2)cccc1-c1ccc2[nH]c(=O)[nH]c2c1` [Example 79, 2-Methyl-3-(2-oxo-1,3-dihydrobenzimidazol-5-yl)-N-phenyl-benzamide] gave an IC50 of 794 nM. Work on `Cc1c(CN2CCOCC2)cccc1-c1ccc2[nH]c(=O)[nH]c2c1` [Example 148, 5-[2-Methyl-3-(morpholinomethyl)phenyl]-1,3-dihydrobenzimidazol-2-one] yielded an IC50 of 2000 nM. For `O=c1[nH]c2ccc(-c3cccc(OC4CC4)c3Cl)cc2[nH]1` [Example 109, 5-[2-Chloro-3-(cyclopropoxy)phenyl]-1,3-dihydrobenzimidazol-2-one], the IC50 was 39.8 nM. In the case of `Cc1c(-c2ccc3[nH]c(=O)[nH]c3c2)cccc1-c1ncno1` [Example 199, 5-[2-Methyl-3-(1,2,4-oxadiazol-5-yl)phenyl]-1,3-dihydrobenzimidazol-2-one], the IC50 is reported as 63.1 nM. With `COc1cccc(Cl)c1-c1ccc2[nH]c(=O)[nH]c2c1` [Example 20, 5-(2-Chloro-6-methoxy-phenyl)-1,3-dihydrobenzimidazol-2-one] the IC50 was 251 nM. With `O=c1[nH]c2ccc(-c3c(Cl)cccc3OCC(F)F)cc2[nH]1` [Example 96, 5-[2-Chloro-6-(2,2-difluoroethoxy)phenyl]-1,3-dihydrobenzimidazol-2-one] the IC50 was 63.1 nM. `Cc1c(-c2ccc3[nH]c(=O)[nH]c3c2)cccc1C(F)(F)F` [Example 60, 5-[2-Methyl-3-(trifluoromethyl)phenyl]-1,3-dihydrobenzimidazol-2-one] gave an IC50 of 79.4 nM. Molecule `O=c1[nH]c2ccc(-c3c(Cl)cccc3-c3ccccc3)cc2[nH]1` [Example 162, 5-(2-Chloro-6-phenyl-phenyl)-1,3-dihydrobenzimidazol-2-one] has an IC50 of 20 nM. `O=c1[nH]c2ccc(-c3c(Cl)cccc3C(F)(F)F)cc2[nH]1` [Example 12, 5-[2-Chloro-6-(trifluoromethyl)phenyl]-1,3-dihydrobenzimidazol-2-one] gave an IC50 of 631 nM. With `O=c1[nH]c2ccc(-c3c(Cl)cccc3OCC(F)(F)F)cc2[nH]1` [Example 95, 5-[2-Chloro-6-(2,2,2-trifluoroethoxy)phenyl]-1,3-dihydrobenzimidazol-2-one] the IC50 was 50.1 nM. `CC(C)Oc1ccc(C(F)(F)F)cc1-c1ccc2[nH]c(=O)[nH]c2c1` [Example 22, 5-[2-Isopropoxy-5-(trifluoromethyl)phenyl]-1,3-dihydrobenzimidazol-2-one] was tested, and the IC50 was 316 nM. In the case of `Cc1cccc(F)c1-c1ccc2[nH]c(=O)[nH]c2c1` [Example 54, 5-(2-Fluoro-6-methyl-phenyl)-1,3-dihydrobenzimidazol-2-one], the IC50 is reported as 251 nM. With `CC(Oc1cccc(Cl)c1-c1ccc2[nH]c(=O)[nH]c2c1)C(F)(F)F` (racemic) [Example 118, (±)-5-[2-Chloro-6-(2,2,2-trifluoro-1-methyl-ethoxy)phenyl]-1,3-dihydrobenzimidazol-2-one] the IC50 was 31.6 nM. For `O=c1[nH]c2ccc(-c3cccc(-c4nnco4)c3Br)cc2[nH]1` [Example 193, 5-[2-Bromo-3-(1,3,4-oxadiazol-2-yl)phenyl]-1,3-dihydrobenzimidazol-2-one], the IC50 was 251 nM. In the case of `O=c1[nH]c2ccc(-c3cccc(OCC(F)F)c3Cl)cc2[nH]1` [Example 112, 5-[2-Chloro-3-(2,2-difluoroethoxy)phenyl]-1,3-dihydrobenzimidazol-2-one], the IC50 is reported as 126 nM. `O=c1[nH]c2ccc(-c3cccc(OC(F)F)c3Cl)cc2[nH]1` [Example 113, 5-[2-Chloro-3-(difluoromethoxy)phenyl]-1,3-dihydrobenzimidazol-2-one] gave an IC50 of 79.4 nM. `Cc1cccc(-c2ccc(F)cc2)c1-c1ccc2[nH]c(=O)[nH]c2c1` [Example 181, 5-[2-(4-Fluorophenyl)-6-methyl-phenyl]-1,3-dihydrobenzimidazol-2-one] showed an IC50 of 100 nM. `O=c1[nH]c2ccc(-c3ccccc3C(F)(F)F)cc2[nH]1` [Example 4, 5-[2-(Trifluoromethyl)phenyl]-1,3-dihydrobenzimidazol-2-one] showed an IC50 of 501 nM. `O=c1[nH]c2ccc(-c3c(Cl)ccc(CN4CCCCC4)c3Cl)cc2[nH]1` [Example 140, 5-[2,6-Dichloro-3-(1-piperidylmethyl)phenyl]-1,3-dihydrobenzimidazol-2-one] gave an IC50 of 398 nM. `N#CCc1ccc(Cl)c(Cl)c1-c1ccc2[nH]c(=O)[nH]c2c1` [Example 122, 2-[3,4-Dichloro-2-(2-oxo-1,3-dihydrobenzimidazol-5-yl)phenyl]acetonitrile] gave an IC50 of 7.94 nM. Work on `COc1cccc(-c2cccc3cccnc23)c1-c1ccc2[nH]c(=O)[nH]c2c1` [Example 182, 5-[2-Methoxy-6-(8-quinolyl)phenyl]-1,3-dihydrobenzimidazol-2-one] yielded an IC50 of 1580 nM.
